Measured values taken from ChEMBL document CHEMBL1250550, “Design, synthesis, biological evaluation, and modeling of a non-carbohydrate antagonist of the myelin-associated glycoprotein” (Bioorg Med Chem, 2010).

Assays:
[1] = biological target: T1, Myelin-associated glycoprotein (Mus musculus, UniProt P20917); assay: Binding affinity to mouse MAGd1-3Fc domain expressed in CHO-Lec1 cells by surface plasmon resonance
T1 sequence (P20917 whole entry): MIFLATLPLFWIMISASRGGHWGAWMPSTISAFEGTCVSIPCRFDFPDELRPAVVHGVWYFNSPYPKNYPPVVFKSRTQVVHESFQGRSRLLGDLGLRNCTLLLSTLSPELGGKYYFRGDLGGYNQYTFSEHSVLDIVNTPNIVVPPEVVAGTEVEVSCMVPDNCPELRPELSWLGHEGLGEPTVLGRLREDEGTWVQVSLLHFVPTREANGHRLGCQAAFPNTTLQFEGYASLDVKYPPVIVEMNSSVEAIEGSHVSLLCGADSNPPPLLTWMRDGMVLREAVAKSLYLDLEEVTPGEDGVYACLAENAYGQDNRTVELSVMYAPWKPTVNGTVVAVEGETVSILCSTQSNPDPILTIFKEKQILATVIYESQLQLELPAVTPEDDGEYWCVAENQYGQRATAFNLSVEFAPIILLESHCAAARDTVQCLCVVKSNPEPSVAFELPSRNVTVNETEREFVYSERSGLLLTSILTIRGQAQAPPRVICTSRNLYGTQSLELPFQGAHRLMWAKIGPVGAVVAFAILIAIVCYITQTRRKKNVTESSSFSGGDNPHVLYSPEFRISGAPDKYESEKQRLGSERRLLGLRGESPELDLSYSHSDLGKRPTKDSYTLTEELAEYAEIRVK

[2] = biological target: T2, Myelin-associated glycoprotein (Mus musculus) (UniProt P20917); assay: Antagonist activity at mouse MAGd1-3Fc domain expressed in CHO-Lec1 cells by fluorescent hapten binding assay relative to (2R,4R,5S,6R)-5-acetamido-6-((1R,2R)-3-benzamido-1,2-dihydroxypropyl)-2-(benzyloxy)-4-hydroxytetrahydro-2H-pyran-2-carboxylate; assay type: cell-based
T2 sequence (whole entry): T1 sequence (P20917 whole entry)

Row | SMILES | Kd [1] [µM] | Ratio IC50 [2]
1 | CC(=O)N[C@H]1C[C@](OCc2ccccc2)(C(=O)O)C[C@@H](OCCNC(=O)c2ccc(Cl)cc2)[C@@H]1NC(=O)CF | > 800 | 4300
2 | O=C(CF)N[C@H]1[C@H]([C@H](O)[C@H](O)CNC(=O)c2ccc(Cl)cc2)O[C@@](OCc2cccc(F)c2F)(C(=O)O)C[C@@H]1O | 0.5 | 0.02
3 | CC(=O)N[C@H]1[C@H]([C@H](O)[C@H](O)CNC(=O)c2ccccc2)O[C@@](OCc2ccccc2)(C(=O)O)C[C@@H]1O | 26 | –
